# From the METLIN SMRT retention time set (Domingo-Almenara et al. 2019)
# Assay: gradient 5% acetonitrile 3 min, to 50% in 2 min, to 85% in 15 min, held 3 min, 100 µL/min
# Settings: column: Zorbax Extend-C18 2.1 x 50 mm; eluents: water / acetonitrile, 0.1% formic acid
# In short: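 Mixtures of ~100 pure standards were chromatographed on a Zorbax Extend-C18 column (2.1 × 50 mm, 1.8 μm) at 100 μL/min using water and acetonitrile, each with 0.1% formic acid. Detection used a quadrupole time-of-flight mass spectrometer in positive and negative ionization mode, and data collection spanned 3 months. Retention time was obtained from adduct peaks picked computationally and each checked manually.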
row,RP-LC retention time,Structure (SMILES)
1,1060 s,O=C(NCCCc1ccccc1)C1CCN(S(=O)(=O)c2ccc(-c3noc(C4CC4)n3)cc2)CC1
2,1090 s,O=C(CCc1nc(CSc2nc3ccccc3s2)no1)Nc1nc(-c2ccccc2)cs1
3,734 s,COC(=O)c1ccccc1NC(=O)CSc1cc(C)nc(-c2cccnc2)n1
4,585 s,CN(C)c1ncccc1NC(=O)c1cccc(C#N)c1
5,1120 s,COc1c(C(=O)NCc2ccc(C)o2)sc2cc(Cl)ccc12
6,845 s,CCCn1cc(S(=O)(=O)Nc2cccc(C)c2)c2cccnc21
7,682 s,COc1ccc(S(=O)(=O)N2CCCC(C(=O)Nc3ccc(C(N)=O)cc3)C2)cc1OC (stereo unspecified)
8,879 s,Cc1noc(C)c1C1CCCN1C(=O)Nc1ccccc1C(F)(F)F (stereo unspecified)
9,779 s,CCCn1cc(CCNS(=O)(=O)c2c(C)noc2C)c2cccnc21
10,565 s,O=C(NCC#CCN1CCc2ccccc2C1)c1c(F)cccc1Cl
11,606 s,COc1ccc(C)cc1Nc1nc(N)nc(CN2CCN(c3ccccn3)CC2)n1
12,586 s,Cc1ccc(CN2CCN(CC(=O)N3CCN(c4ccccn4)CC3)C(=O)C2=O)cc1
13,557 s,CNC(=O)c1cc(N(C)C)nc2c(C)cccc12
14,782 s,CC1CCC(C(=O)Nc2cc3c(cc2N2CCOCC2)n(C)c(=O)c(=O)n3C)CC1 (stereo unspecified)
15,733 s,CN1C(=O)COc2ccc(-c3csc(NC(=O)c4cccnc4)n3)cc21
16,827 s,COc1ccccc1-c1noc(C2CCCN2C(=O)Nc2ccccc2C)n1 (stereo unspecified)
17,765 s,NC(=O)C1CCN(c2cc(-c3nc(-c4ccccc4)no3)c3ccccc3n2)CC1
18,898 s,CCN1C(=O)c2cccnc2Sc2cc(NC(=O)c3cc(C)ccc3C)ccc21
19,784 s,O=C(NC1CCCC1)C1CCCN(S(=O)(=O)c2c[nH]c(C(=O)N3CCCCCC3)c2)C1 (stereo unspecified)
20,1210 s,Cc1ccc(-c2nnc(-c3ccccc3)o2)cc1S(=O)(=O)N1CCC(C)CC1
21,658 s,CCOc1ccc(C(=O)NC2CCN(c3cc(-c4cccs4)[nH]n3)C2)cc1 (stereo unspecified)
22,627 s,CC(C(=O)N1CCN(c2ccccn2)CC1)n1c2ccccc2c2cnn(C)c(=O)c21 (stereo unspecified)
23,604 s,Cc1n[nH]c(C)c1S(=O)(=O)N1CCN(c2ccc3nnc(C4CC4)n3n2)CC1

row,RP-LC retention time,Structure (SMILES)
1,784 s,Nc1nc(N2CCN(c3ccccc3)CC2)ncc1C(=O)Nc1ccccc1
2,643 s,Cc1noc([C@@H]2CN(Cc3ccc(OC(F)(F)F)cc3)C[C@H]2CO)n1
3,740 s,O=C(Nc1ccc(CC(=O)N2CCOCC2)cc1)NC(c1ccccc1)c1ccccc1
4,905 s,CCOC(=O)N1CCc2c(sc(NC(=O)C3CC3)c2-c2nc3ccccc3s2)C1
5,692 s,CCc1nnc(-c2ccc(=O)n(CC(=O)Nc3ccc(C)cc3F)c2)o1
6,892 s,CCc1nnc2sc(-c3cc(C)nc4ccc(Br)cc34)nn12
7,846 s,Cc1csc(-c2cc(S(=O)(=O)N3CCOCC3)cn2CC(=O)N2CCCCC2)n1
8,972 s,CCS(=O)(=O)Nc1ccc(C2(C(=O)NCc3cc(F)cc(F)c3)CCCCC2)cc1
9,885 s,O=C(Nc1ccc2c(c1)OCO2)c1cn(-c2ccc(F)cc2)nn1
10,589 s,NC(=O)[C@@H]1C[C@H](Oc2cccnc2)CN1C(=O)CCc1nc2ccccc2s1
11,723 s,CC1CN(CC(=O)N2CCN(Cc3ccc4c(c3)OCO4)CC2)c2ccccc2S1 (stereo unspecified)
12,783 s,CC1(C(=O)NCc2ccccc2)Cn2cnc(C(=O)NCc3ccccc3F)c2C(=O)N1C1CC1 (stereo unspecified)
13,847 s,O=C(NCc1ccc2c(c1)OCO2)c1ccc2c(c1)CC(=O)N2Cc1ccc(F)cc1
14,553 s,O=C(NCCN1CCCC1)c1cccc(N2CCNC(c3ccccc3)C2)n1 (stereo unspecified)
15,588 s,COc1ccc(C)cc1NC(=O)CNC(=O)c1ccc(=O)[nH]c1
16,561 s,CC(C)CCN1C[C@@H]2C(=O)N(CCN3CCc4ccccc4C3)C(=O)[C@@H]2C1
17,682 s,CCn1ccnc1CC1COc2ccccc2O1 (stereo unspecified)
18,578 s,COCc1nc(-c2ccc(OC3CNC3)cc2)no1
19,1030 s,CCCn1c(=O)c(N2CCC(NC(=O)Nc3cccc(C)c3)CC2)nc2ccccc21
20,1020 s,O=c1n(Cc2ccc(Cl)cc2)nc2c(S(=O)(=O)N3CCc4ccccc4C3)cccn12
21,820 s,COC(=O)c1ccc(C2CC(=O)NC3=C2C(=O)CC(c2ccc(F)cc2)C3)cc1 (stereo unspecified)
22,822 s,CCOc1ccc2c(n1)CCN(C(=O)NC1CCCCC1)C2
23,860 s,COC(=O)C1=CN(c2ccc(F)c(F)c2)c2cc(F)ccc2S1(=O)=O

row,RP-LC retention time,Structure (SMILES)
1,907 s,CSc1ccc(Cc2nnc(NC(=O)c3cccc(C(F)(F)F)c3)o2)cc1
2,786 s,CCC(C)C(NC(=O)c1ccc(C)cc1C)C(=O)Nc1nc2ccccc2[nH]1 (stereo unspecified)
3,884 s,CC(C)OCCCNC(=O)c1ccc2nc(Cc3ccccc3)oc2c1
4,557 s,Cc1ccc2c(n1)nn1c(C)cc(C)nc21
5,713 s,O=C(NCc1ccc(Cl)cc1)C1CCN(c2cnc3nccnc3c2)CC1
6,594 s,COCCC(=O)N1CCC2(CCC2NC(=O)COC)CC1 (stereo unspecified)
7,863 s,CCOC(=O)CCc1c(C)nn(-c2cc(N3CCOCC3)ncn2)c1C
8,683 s,CNC(=O)C1CCN(Cc2cc3ccccc3n2Cc2cccc(Cl)c2)CC1
9,687 s,CCc1ccc(S(=O)(=O)c2ccccc2)cc1S(=O)(=O)NCCCN(C)C
10,754 s,O=C(Cn1c(=O)n(-c2ccc(F)cc2)c2ncccc21)N1CCCCC1
11,586 s,CCCn1c(C)cnc1C1CN(C(=O)c2cccs2)C1
12,806 s,O=C(Nc1ccccc1NC(=O)c1ccc(Br)o1)c1ccsc1
13,858 s,O=C(NCC1CCCO1)C1CCN(S(=O)(=O)c2cc(-c3noc(C4CCC4)n3)cs2)CC1 (stereo unspecified)
14,870 s,O=C(NCc1nn(Cc2ccccc2)c2ccccc12)c1ccoc1
15,1030 s,Cc1csc(-c2cc(S(=O)(=O)NCc3ccc(C(C)C)cc3)cn2CC(=O)N2CCCC2)n1
16,567 s,O=C(Cn1nc(Cc2ccncc2)c2ccccc2c1=O)NCCCN1CCc2ccccc2C1
17,678 s,Cc1noc2nc(C)n(CC(=O)NC3CCCC3)c(=O)c12
18,833 s,COc1ccccc1NC(=O)NC1CCN(c2ccc(F)c(C)c2)C1=O (stereo unspecified)
19,639 s,Cc1ccc(C(=O)NCC(=O)Nc2nc3ccccc3[nH]2)c(C)c1
20,838 s,Cc1nc(N2CCN(c3ccccn3)CC2)nc2c1C(=O)CC(c1cccc(Cl)c1)C2 (stereo unspecified)
21,728 s,CCc1noc(NC(C)=O)c1-c1ccc(C)c(S(=O)(=O)NC2CC2)c1
22,752 s,CC(C)Sc1ccc(CC(=O)NCC2(O)CCCC2)cc1
23,820 s,COC(=O)c1ccc(CSc2ccc(NC(=O)c3cccs3)nn2)o1

row,RP-LC retention time,Structure (SMILES)
1,691 s,CCN(CC)C(=O)c1ccc(-n2nc(C)c3c2CCCC3=O)cc1
2,811 s,Cc1ccnc(N2CCC(C(=O)Nc3ccc(Br)cc3F)CC2)n1
3,916 s,CCc1cccc(NC(=O)CN2C(=O)CCCc3cc(S(=O)(=O)N4CCCC4)ccc32)c1
4,780 s,CC(C)C(=O)Nc1cccn2nc(C(C)C)nc12
5,1110 s,CN(C)S(=O)(=O)c1ccc(C(=O)Nc2nc3c(s2)CCc2ccccc2-3)cc1
6,770 s,Cc1cc(C)cc(NC(=O)C2CC(=O)N(c3n[nH]c4cccc(F)c34)C2)c1 (stereo unspecified)
7,639 s,Cc1cc(C(=O)N2CC(c3nc(-c4ccccn4)no3)C2)no1
8,636 s,O=C(CN1CCN(c2ccc(F)c(F)c2)C1=O)NC1CCS(=O)(=O)C1 (stereo unspecified)
9,1110 s,COc1cccc(-c2ccc(=O)n(Cc3nc(-c4cccc(Br)c4)no3)n2)c1
10,818 s,Clc1ccc(-c2nc(N3CCCCC3)c3ccccc3n2)cc1
11,683 s,COC(=O)c1ccc(NC(=O)CSc2ncnc3c2nnn3C)cc1
12,911 s,COC(=O)c1ccccc1NC(=O)Cn1c(=O)n(-c2ccccc2)c(=O)c2c1cc(C)n2C
13,602 s,O=c1ccc(S(=O)(=O)N2CCCC2)cn1Cc1ccccc1
14,705 s,COc1ccc(-c2nc3sc(C(N)=O)c(C)n3c2NC(C)(C)C)cc1
15,1070 s,COc1cccc(-c2nc(COc3cc(C)c4c(C)nn(C)c4n3)c(C)o2)c1OC
16,661 s,CCC1CCCCN1CCCNC(=O)c1cc(S(=O)(=O)N2CCCC2)ccc1Cl (stereo unspecified)
17,596 s,O=C(c1csc(-c2ccc(N3CCCC3)nc2)n1)N1CCCC1
18,810 s,O=C(C1CC(=O)N(c2ccc(F)cc2)C1)N1CCC(c2c[nH]c3ccccc23)CC1 (stereo unspecified)
19,943 s,Cc1c(Cl)cccc1NC(=O)C(=O)NCc1ccsc1
20,742 s,CCOC(=O)N1CCN(C(=O)CSc2ncnc3c2oc2ccccc23)CC1
21,667 s,CCC(=O)N1CCc2cc(N3CC(C(=O)NCc4ccco4)CC3=O)ccc21 (stereo unspecified)
22,593 s,Cc1noc(C)c1CCNC(=O)c1cn2ccccc2n1
